Test [1] deals with SHR/L-NAME model of hypertension. Description: Radiotelemetry blood pressure and heart rate in L-NAME-treated SHRs. It counts as in vivo, rat. How it is done:
12-14 week old male SHRs were implanted with radiotelemetry devices and randomized to receive vehicle, L-NAME (50 mg/L) or L-NAME and 4μ8c (2.5 mg/kg/day i.p.) for 18 days. Systolic (A), diastolic (B), and heart rate (C) were monitored. Data is presented as mean±SEM. *, p<0.05 vs. NT; #, p<0.05 vs. L-NAME. N≥4 per group.
(§1) 12-14 week old male SHRs were used to determine the effect of pharmacological IRE1α inhibition on L-NAME-induced vascular stiffening. They were maintained on a 12-hour light-dark cycle with rat chow and water ad libitium. Animals were implanted with radio-telemetry devices (Data Science International, St. Paul, Minn., USA) one week before the start of the study. Animals were randomized into one of three groups (n=6 per group): 1) No treatment, 2) L-NAME (50 mg/L in drinking water, Sigma-Aldrich), or 3) L-NAME+4μ8c (2.5 mg/kg/day i.p., Millipore). 4μ8c was administered in a vehicle of 10% DMSO, 10% Tween-80 and 80% normal saline. Animals in Group 2 received daily injections of the vehicle. All animals were fed a normal chow diet. At 18 days, animals were sacrificed, organs were harvested and the aorta was collected for mechanical and structural analysis. All animal work was performed according to the guidelines approved by the McMaster University Animal Research Ethics Board.
12-14 week old SHRs were implanted with radiotelemetry devices and treated with the nitric oxide synthase inhibitor L-NAME for 18 days. Rats were given daily injections of either vehicle or 4μ8c (2.5 mg/kg/day i.p.). […] At Day 6, SBP had increased from 187.4±5.4 mmHg to 228.0±15.5 mmHg (p<0.05) and DBP from 134.8±6.5 mmHg to 174.5±13.6 mmHg. At Day 14, SBP and DBP reached a peak of 262.6±13.9 mmHg and 210.4±14.8 mmHg, respectively. […] In the L-NAME+4μ8c group, SBP increased from 166.6±8.4 mmHg at baseline to 216.7±4.8 mmHg at Day 6 while DBP increased from 124.7±5.5 mmHg at baseline to 166.2±8.2 mmHg at Day 6. SBP and DBP peaked at 232.3±5.4 mmHg and 192.1±17.0 mmHg, respectively, at Day 9. […] Vessels were stained with PicroSirius Red and imaged using a light microscope (FIG. 5A). Collagen content in homogenized aortic tissue was measured using the PSR-based colorometric assay.

Test [2] deals with spliced XBP1, GRP78, PDI. Nature of the test: Aortic collagen chaperone and ER stress marker expression (qRT-PCR, Western blot) in L-NAME-treated SHRs. The class given is in vivo, rat. How it is done: 12-14 week old male SHRs were randomized to receive vehicle, L-NAME (50 mg/L) or L-NAME and 4μ8c (2.5 mg/kg/day i.p.) for 18 days. Total RNA was extracted from flash frozen aortic tissues. (A) qRT-PCR was used to assess relative mRNA expression of spliced XBP1 and GRP78. 18S was used as a housekeeping gene. (B) Protein levels of PDI and GRP78 were assessed by western blotting and normalized to β-actin. Data is presented as mean±SEM. *, p<0.05 vs. NT. #, p<0.05 vs L-NAME.
as §1
Total RNA was extracted from cultured cells and rat tissues using the TRIzol reagent (ThermoFisher) according to manufacturer's instructions. RNA concentration and purity were measured using a Nanodrop ND-1000 spectrophotometer (NanoDrop Technologies, Inc.). […]
For qRT-PCR, cDNA was amplified using the Fast SYBR Green Master Mix (ThermoFisher) and analyzed with 7500 Software. […]
Cells were lysed in 1× Laemmli buffer and protein content was quantified using the BioRad DC Protein Assay (BioRad, Mississauga, Canada). […]
(In general: In qPCR the cycle at which signal appears reflects the starting amount.)

The mark [3] stands for this setting: L-NAME+4μ8c group, peak at Day 9.
Setting [4] is: SHR, L-NAME 50 mg/L, 4μ8c 2.5 mg/kg/day i.p., 18 days.

From patent US20190038597A1, “PREVENTION OF VASCULAR AND CARDIAC FIBROSIS VIA IRE1ALPHA INHIBITION” (McMaster University, priority 2017, published 2019) come the findings set out here.

For the compound `Cc1cc(=O)oc2c(C=O)c(O)ccc12` [4μ8c, 7-Hydroxy-4-methyl-2-oxo-2H-chromene-8-carbaldehyde], in test [1] (L-NAME+4μ8c group, Day 6), the DBP is 166.2±8.2 mmHg and the SBP was 216.7±4.8 mmHg. In test [1] (L-NAME+4μ8c group, baseline), this compound had a DBP of 124.7±5.5 mmHg and an SBP of 166.6±8.4 mmHg. In test [1] (setting [3]), this compound displayed a DBP peak of 192.1±17.0 mmHg and an SBP peak of 232.3±5.4 mmHg. For the same compound, in test [1] (setting [4]), the “effect on L-NAME-induced elevation in blood pressure” value was “did not have an effect” and the “effect on L-NAME-induced elevation in heart rate” value is “did not have an effect”. The “GRP78 protein in the aorta” value in test [2] (L-NAME+4μ8c group compared to the other two groups, Western blot) is “significantly decreased”. Moreover, in test [2] (L-NAME+4μ8c group vs L-NAME group, Western blot), the “PDI protein expression in the aorta” value is “significantly decreased”. Besides, in test [2] (L-NAME+4μ8c group vs L-NAME group, qRT-PCR, FIG. 6A), the “Spliced XBP1 and GRP78 mRNA expression in the aorta” value is reported as “reduced”.
